Data taken from publication PMC10454396 (International Journal of Molecular Sciences, 2023).
≈ marks a conversion by molar mass, not a printed value.

What was measured:
[1] = Phase I metabolic stability, rat liver microsomes; format: in vitro ADME; conditions: pooled liver microsomes, pH 7.4
Experimental: (§1) For the evaluation of phase I metabolic stability, the compound (1 µM) was incubated with 0.5 mg/mL pooled mouse/rat liver microsomes (Xenotech, Kansas City, MO, USA) or human liver microsomes (Corning, NY, USA), 2 mM NADPH and 10 mM MgCl2 at pH 7.4 for 120 min at 37 °C. The metabolic stability of testosterone, verapamil and ketoconazole were determined in parallel to confirm the enzymatic activity of mouse/rat liver microsomes; for human liver microsomes testosterone, diclofenac and propranolol were used. The incubation was stopped after defined time points by precipitation of aliquots of the assay mixture with two volumes of ice-cold acetonitrile containing internal standard (15 nM diphenhydramine). Samples were stored on ice until the end of the incubation and precipitated protein was removed by centrifugation (15 min, 4 °C, 4000× g).

[2] = Plasma protein binding (RED), rat plasma; format: in vitro ADME; conditions: Wistar, pooled plasma, pH 7.4, rat plasma
Experimental: (§2) Plasma protein binding was determined using the Rapid Equilibrium Dialysis (RED) system (Thermo Fisher Scientific, Waltham, MA, USA). The compound was diluted in pooled murine (CD-1)/human or Wistar rat plasma (Neo Biotech, Nanterre, France) to 10 µM and added to the respective chamber according to the manufacturer’s protocol, followed by addition of PBS pH 7.4 to the opposite chamber. Samples were taken immediately after addition to the plate as well as after 2, 4 and 5 h by mixing 10 µL with 80 µL ice-cold acetonitrile containing 12.5 nM diphenhydramine as internal standard, followed by addition of 10 µL plasma to samples taken from PBS and vice versa. Samples were stored on ice until the end of the incubation and precipitated protein was removed by centrifugation (15 min, 4 °C, 4000× g, 2 centrifugation steps). Concentration of the remaining test compound at the different time points was analyzed by HPLC-MS/MS (TSQ Altis Plus, Thermo Fisher, Dreieich, Germany). The amount of compound bound to protein was calculated using the equation PPB [%] = 100 − 100 × (amount in buffer chamber/amount in plasma chamber).

[3] = Plasma protein binding (RED), human plasma; format: in vitro ADME; conditions: pooled plasma, pH 7.4, human plasma
Experimental: as §2

[4] = Phase I metabolic stability, mouse liver microsomes; format: in vitro ADME; conditions: pooled liver microsomes, pH 7.4
Experimental: as §1

[5] = format: in vitro ADME; conditions: mouse plasma
Experimental: (§3) To determine stability in plasma, a similar setup as for the determination of metabolic stability was applied using pooled mouse, human or rat plasma (Neo Biotech, Nanterre, France). Samples were taken by mixing aliquots with four volumes of ice cold acetonitrile containing internal standard (12.5 nM diphenhydramine). The plasma stability of procain, propantheline and diltiazem were determined in parallel to confirm the enzymatic activity.

[6] = system: CYP3A4; conditions: cited from earlier work
[7] = system: zebrafish embryos; assay: Toxicity of antimicrobials on zebrafish embryos; format: in vivo, Danio rerio
Experimental: Toxicity of antibiotics was assessed by aquatic exposure and microinjection. For evaluation of the maximum tolerated concentration (MTC) by aquatic exposure, embryos were dechorionated at 30 hpf and placed in a flat-bottom 96-well plate (Sarstedt) with one embryo per well. Excess medium was removed and 150 µL of compound dilutions (in 0.3× Danieau’s, maximum of 1% DMSO) were added. For each antibiotic, a range of concentrations was investigated. Ten embryos were used per concentration and ten additional embryos incubated in fish medium without any antibiotic served as negative control. Microinjection of antibiotics into the caudal vein (CV) and the yolk sac was performed as described earlier. PBS-injected embryos served as negative control. Exposed embryos were maintained at 28 °C throughout the whole experiment. Embryos were monitored daily under a stereo microscope (Stemi 508, Zeiss) in order to record survival as well as anomalies, pigmentation, heartbeat and locomotor responses. An embryo was considered dead when no heart beat could be observed.

[8] = In vivo pharmacokinetics in male CD-1 mice, i.v.; set-up: species or system mouse; conditions: 5 mg/kg i.v.
Experimental: Pharmacokinetic evaluation of sorangicin A in mice was carried out by Pharmacelsus GmbH (Saarbrücken, Germany). All mouse experiments were approved by and conducted in accordance with the regulations of the local Animal Welfare authorities. Nine adult male CD-1 mice (purchased from Janvier Labs, Le Genest-Saint-Isle, France) were used. Animals were housed in a separate temperature-controlled room (20–24 °C) and maintained in a 12 h light/12 h dark cycle. […] Retrobulbar blood samples were collected from three animals at 0.083, 0.25, 0.5, 1, 3 and 7 h after i.v. administration (two time points/ animal). At each of the designated time points 100 µL blood was collected from the eye into lithium heparin tubes. Quantification of sorangicin A in the generated plasma was performed by LC-MS/MS analysis. The pharmacokinetic analysis was performed by applying a non-compartment model using the Kinetica 5.0 software (Thermo Scientific, Waltham, MA, USA). All given parameters were obtained by trapezoid area calculation.

[9] = system: Staphylococcus aureus Newman mCherry; assay: MIC, broth microdilution, mCherry-expressing S. aureus Newman; format: cell-based; conditions: Staphylococcus aureus, NEWMAN
Experimental: Cefazolin was obtained from Acros Organics. Ciprofloxacin hydrochloride, linezolid and vancomycin hydrochloride were obtained from Sigma-Aldrich (St. Louis, MO, USA). Tetracycline hydrochloride was obtained from Alfa Aesar. Sorangicin A was provided by HZI, Braunschweig. Stock solutions were prepared in Milli-Q water or dimethyl sulfoxide (DMSO, Sigma-Aldrich). Minimum inhibitory concentrations (MICs) were determined in cation-adjusted Mueller-Hinton broth (MHB2) using the broth microdilution method as recommended by the Clinical and Laboratory Standards Institute (CLSI). The MIC was defined as the lowest concentration of the antibiotic causing complete inhibition of visible growth of the microorganism (CLSI, 2017).
1. In vitro characterization of mCherry expressing Staphylococcus aureus Newman
1.1 Minimum inhibitory concentration
Table S1. Antibiotic susceptibility profile of Staphylococcus aureus Newman. WT: wild type. […]

[10] = in vitro; format: in vitro ADME; conditions: read-out: Plasma Stability t1/2
Experimental: as §3

[11] = 10 µM, read-out: PPB (converted)

In the case of C/C(=C\[C@H](C)CCCCC(=O)O)[C@@H]1O[C@@H]2C=C[C@H]1OC(=O)\C=C/C=C\C=C\[C@H]1O[C@@H]3C[C@H]1O[C@@H](/C=C/C[C@H]1O[C@H](C[C@H](O)[C@H]1C)[C@@H](O)[C@@H](O)/C=C/CC/C=C/C2)[C@@H]3C [sorangicin A], the microsomal CLint at 1 µM [1] is reported as 239 ± 155 µL/min/mg, the fraction unbound at 10 µM [2, 11] is reported as 0.112 and the fraction unbound at 10 µM ([2]; read-out: free fraction) is reported as over 0.1. For the same compound, the fraction unbound at 10 µM [3, 11] was 0.13, the fraction unbound at 10 µM ([3]; read-out: free fraction) was over 0.1 and the microsomal CLint at 1 µM [4] was 557 ± 297 µL/min/mg. For the same compound, the “plasma concentration after 4 h incubation” value [5] was “below the limit of detection”, the CYP3A4 induction [6] was “only moderate CYP3A4 induction” and the “reduction in embryo survival with respect to control (1% DMSO)” value ([7]; long-term aquatic exposure, 200 µg/mL) was 10%. For the same compound, the “tolerability of injection dose” value ([7]; microinjection 30 mg/kg) was “well-tolerated”, the well-tolerated concentration ([7]; short- and long-term aquatic exposure) was “up to 100 µg/mL” and the “cZ (last measured blood concentration)” value [8] was 7.2 ng/mL. The “time plasma levels maintained above the MIC of S. aureus” value [8] was “less than 30 min”, the AUC(0-t) ([8]; mouse, plasma, iv) was 341 ng·h/mL and the clearance ([8]; mouse, plasma, iv, read-out: CL (total clearance) (converted)) was 238 mL/min/kg. The Vd ([8]; mouse, plasma, iv, read-out: Vz) was 18 L/kg, the C0 ([8]; mouse, plasma, iv, read-out: c0 (maximum blood concentration, extrapolated time point zero)) was 1830 ng/mL and the half-life ([8]; mouse, plasma, iv, read-out: t1/2 (terminal phase) (converted)) was 0.87 h. The MIC [9] was 0.0625 µg/mL (≈ 0.0774 µM), the half-life ([10]; human plasma) was over 4 h and the half-life at 1 µM ([10]; rat plasma) was over 4 h.
